Results reported in patent US8673894B2 (Hoffmann-La Roche Inc., priority 2010, dated 2014).
Counter-ions that a name gives are not always drawn.

What was measured:
Aβ40 = test: Cellular Aβ-lowering assay; type: cell-based; conditions: HEK293 cells stably expressing human APP695, Aβ40 in supernatant by ELISA after 18-20 hrs; read-out: Cellular assay Abeta40 IC50
Outline: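 HEK293 cells stably expressing human wild-type APP695 were treated with compound for 18-20 h at 37 °C in 0.8% v/v DMSO. Secreted Aβ40 in the supernatant was measured by sandwich ELISA (Aβ40 C-terminus-specific capture, HRP-4G8 detection, TMB read at 450 nm) and quantified against a pure Aβ peptide standard curve.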

[1] = target: T1, endogenous cellular BACE2 (Rattus norvegicus, UniProt Q6IE75); test: Assay for BACE inhibition by measuring cellular TMEM27 cleavage; type: cell-based; conditions: INS-TMEM27 (INS1e-derived) cells, shed human TMEM27 in supernatant by ELISA
T1 construct: endogenous cellular BACE2 in the Ins1e rat cell line; endogenous in cells; host or cells: INS-TMEM27 (INS1e-derived rat insulinoma cell line with doxycycline-inducible full-length human TMEM27)
T1 sequence (Q6IE75 63-514): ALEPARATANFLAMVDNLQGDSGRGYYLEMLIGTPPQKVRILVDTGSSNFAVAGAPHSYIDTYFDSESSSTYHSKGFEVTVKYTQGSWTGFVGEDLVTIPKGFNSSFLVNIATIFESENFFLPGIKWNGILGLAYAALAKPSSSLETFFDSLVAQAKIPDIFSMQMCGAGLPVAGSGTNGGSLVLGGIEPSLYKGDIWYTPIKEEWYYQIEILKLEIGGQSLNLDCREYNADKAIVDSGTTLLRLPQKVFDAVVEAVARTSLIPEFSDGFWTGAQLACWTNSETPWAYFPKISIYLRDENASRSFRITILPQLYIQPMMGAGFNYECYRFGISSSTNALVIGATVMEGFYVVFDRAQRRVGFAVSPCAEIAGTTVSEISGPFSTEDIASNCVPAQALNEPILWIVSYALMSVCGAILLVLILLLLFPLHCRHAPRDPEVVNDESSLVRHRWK
Outline: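 INS1e rat cells with doxycycline-inducible human TMEM27 get inhibitor 2 h before doxycycline (500 ng/ml final), then 46 h further at 37° C. Shed TMEM27 in the supernatant is measured by sandwich ELISA, and the EC50 comes from a curve fit of the ELISA signal.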

IC50 (Aβ40) [nM]	IC50 [1] [nM]	Structure (SMILES)
4.9	9.68	C[C@]1(c2cc(NC(=O)c3nn(C(F)F)cc3Cl)ccc2F)N=C(N)COCC1(F)F [Example 114, (R)-N-(3-(3-Amino-6,6-difluoro-5-methyl-2,5,6,7-tetrahydro-1,4-oxazepin-5-yl)-4-fluorophenyl)-4-chloro-1-(difluoromethyl)-1H-pyrazole-3-carboxamide]
3.8	6	C[C@]1(c2cc(NC(=O)c3nn(C(F)F)cc3Cl)ccc2F)N=C(N)COC[C@@H]1F [Example 115, N-(3-((5R,6R)-3-Amino-6-fluoro-5-methyl-2,5,6,7-tetrahydro-1,4-oxazepin-5-yl)-4-fluorophenyl)-4-chloro-1-(difluoromethyl)-1H-pyrazole-3-carboxamide]
20	189	CC[C@]1(c2cc(NC(=O)c3nn(C(F)F)cc3Cl)ccc2F)N=C(N)COCC1(F)F [Example 116, (R)-N-(3-(3-Amino-5-ethyl-6,6-difluoro-2,5,6,7-tetrahydro-1,4-oxazepin-5-yl)-4-fluorophenyl)-4-chloro-1-(difluoromethyl)-1H-pyrazole-3-carboxamide]
34	30000	CC1(C)OCC(N)=N[C@](C)(c2cc(NC(=O)c3ccc(C#N)cn3)c(F)cc2F)C1(F)F [Example 117, (R)-N-(5-(3-amino-6,6-difluoro-5,7,7-trimethyl-2,5,6,7-tetrahydro-1,4-oxazepin-5-yl)-2,4-difluorophenyl)-5-cyanopicolinamide]
340	14800	CC1(C)OCC(N)=N[C@](C)(c2cc(NC(=O)c3ccc(Cl)cn3)c(F)cc2F)C1(F)F [Example 118, (R)-N-(5-(3-amino-6,6-difluoro-5,7,7-trimethyl-2,5,6,7-tetrahydro-1,4-oxazepin-5-yl)-2,4difluorophenyl)-5-chloropicolinamide]
0.8	9.03	CC[C@]1(c2cc(NC3CCCC3)ccc2F)N=C(N)COCC1(F)F [Example 119, (R)-5-(5-(Cyclopentylamino)-2-fluorophenyl)-5-ethyl-6,6-difluoro-2,5,6,7-tetrahydro-1,4-oxazepin-3-amine]

Continued, molecule first:

Structure (SMILES)	IC50 (Aβ40) [nM]	IC50 [1] [nM]
C[C@]1(c2cc(NC(=O)c3nn(CC(F)(F)F)cc3Cl)ccc2F)N=C(N)COCC1(F)F [Example 106, (R)-N-(3-(3-Amino-6,6-difluoro-5-methyl-2,5,6,7-tetrahydro-1,4-oxazepin-5-yl)-4-fluorophenyl)-4-chloro-1-(2,2,2-trifluoroethyl)-1H-pyrazole-3-carboxamide]	630	2170
CCc1n[nH]c(C(=O)Nc2ccc(F)c([C@@]3(C)N=C(N)COCC3(F)F)c2)c1C [Example 107, (R)-N-(3-(3-Amino-6,6-difluoro-5-methyl-2,5,6,7-tetrahydro-1,4-oxazepin-5-yl)-4-fluorophenyl)-3-ethyl-4-methyl-1H-pyrazole-5-carboxamide]	790	886
C[C@]1(c2cc(NC(=O)c3ccc(C(F)F)cn3)ccc2F)N=C(N)COCC1(F)F [Example 108, (R)-N-(3-(3-Amino-6,6-difluoro-5-methyl-2,5,6,7-tetrahydro-1,4-oxazepin-5-yl)-4-fluorophenyl)-5-(difluoromethyl)picolinamide formate]	5.7	49.5
COc1cnc(C(=O)Nc2ccc(F)c([C@@]3(C)N=C(N)COCC3(F)F)c2)cn1 [Example 109, (R)-N-(3-(3-Amino-6,6-difluoro-5-methyl-2,5,6,7-tetrahydro-1,4-oxazepin-5-yl)-4-fluorophenyl)-5-methoxypyrazine-2-carboxamide formate]	1.9	143
CC1(C)OCC(N)=N[C@](C)(c2cc(NC(=O)c3ccc(Cl)cn3)ccc2F)C1(F)F [Example 110, (R)-N-(3-(3-amino-6,6-difluoro-5,7,7-trimethyl-2,5,6,7-tetrahydro-1,4-oxazepin-5-yl)-4-fluorophenyl)-5-chloropicolinamide]	0.8	9.03
CC1(C)OCC(N)=N[C@](C)(c2cc(NC(=O)c3ccc(C#N)cn3)ccc2F)C1(F)F [Example 111, (R)-N-(3-(3-amino-6,6-difluoro-5,7,7-trimethyl-2,5,6,7-tetrahydro-1,4-oxazepin-5-yl)-4-fluorophenyl)-5-cyanopicolinamide]	0.7	30.5
C[C@]1(c2cc(NC(=O)c3ncccc3OCC(F)(F)F)ccc2F)N=C(N)COC[C@@H]1F [Example 112, N-(3-((5R,6R)-3-amino-6-fluoro-5-methyl-2,5,6,7-tetrahydro-1,4-oxazepin-5-yl)-4-fluorophenyl)-3-(2,2,2-trifluoroethoxy)picolinamide]	69	129
Cc1nc(C(=O)Nc2ccc(F)c([C@@]3(C)N=C(N)COCC3(F)F)c2)c(C(F)(F)F)o1 [Example 113, (R)-N-(3-(3-Amino-6,6-difluoro-5-methyl-2,5,6,7-tetrahydro-1,4-oxazepin-5-yl)-4-fluorophenyl)-2-methyl-5-(trifluoromethyl)oxazole-4-carboxamide]	35.8	123
